The results in this text go back to PubChem BioAssay (NCI).

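Compound exposure: 48 hours, 5 concentrations, 96-well plates. At the GI50, growth is halved. TGI: concentration producing complete growth inhibition.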

What all share (assay): NCI-60 cell line screen, 48 h
In experiment [1] the test system is NCI-H522 lung.
Experiment [2] concerns SN12C renal.
Experiment [3] deals with SK-OV-3 ovarian.
The test system of experiment [4] is HOP-62 NSCLC.
The test system of experiment [5] is MOLT-4 leukemia.
Experiment [6] relates to SW-620 colon.
Experiment [7] has as its system EKVX NSCLC.
The subject of experiment [8] is HL-60(TB) leukemia.
Experiment [9] has as its system SK-MEL-5 melanoma.
The test system of experiment [10] is HT29 colon.

With `Cc1cccc(C(C)(C)C)c1NC(=O)C(=O)Cc1nc2ccccc2s1`, the TGI in experiment [1], in experiment [2], in [3], in experiment [4], in experiment [5] and in experiment [6] was over 100 µM each time. Moreover, the TGI in experiment [7], in experiment [8], in experiment [9] and in experiment [10] was over 100 µM in each case.

With `COc1cc2c(NCCCCCCO[N+](=O)[O-])ncnc2c(OC)c1OC`, the TGI in experiment [1] is 52.9 µM; in experiment [2], over 71.5 µM; in experiment [3], over 100 µM; in experiment [4] it was 66.7 µM; in experiment [5] it was over 61.9 µM; in [6], 70.5 µM. Moreover, the TGI was 68.3 µM in experiment [7], 54.8 µM in [8], 25 µM in experiment [9] and over 62 µM in experiment [10].

As for `Cc1nc2nnc(C)n2c2c1C(=O)Nc1ccccc1N2`, the TGI in experiment [1], in experiment [2], in experiment [3], in experiment [4], in experiment [5] and in experiment [6] was over 100 µM each time. Moreover, the TGI in [7], in experiment [8] and in [10] was over 100 µM each time.

As for `Clc1cccc(NC=Nc2ccc(-c3nc4ccccc4s3)cc2)c1`, the GI50 in experiment [1] is 11.8 µM; in experiment [2], 20.4 µM; in experiment [3], 31.7 µM; in experiment [4], 42.3 µM; in [6], 16.7 µM; in experiment [7], 3.97 µM. For the same compound, the GI50 in experiment [8] and in [9] was 10.5 µM in each case. Besides, the TGI in [1] is 22.3 µM; in experiment [2] it was over 50 µM; in [3] it was over 50 µM; in experiment [4], over 50 µM; in experiment [6], over 50 µM; in experiment [7], 29.9 µM. For the same compound, the figures for the TGI in experiment [8] and in experiment [9] were 27.3 µM and 21.6 µM, respectively.

In the case of `CN1CCN(Cc2ccc(NC(=O)c3cncc(C#Cc4cnc(N)c5ccccc45)c3)cc2C(F)(F)F)CC1`, the GI50 in [1] is 0.367 µM; in experiment [2], 0.242 µM; in experiment [3] it was 0.199 µM; in experiment [4], 0.324 µM; in experiment [5], 0.164 µM; in experiment [6] it was 0.125 µM. Moreover, the GI50 in [7] was 0.413 µM; in experiment [8], 0.165 µM; in experiment [9] it was 0.537 µM; in [10], 0.28 µM. Further, the TGI in [1] worked out at 0.967 µM; in [2], 0.693 µM; in experiment [3], 0.638 µM; in experiment [4], 1.25 µM; in experiment [5] it was 1.16 µM; in experiment [6], 0.421 µM. The TGI in experiment [7] was determined as 0.974 µM; in experiment [8], 0.665 µM; in experiment [9] it was 0.994 µM; in experiment [10], 1.29 µM.

`CN(C)S(=O)(=O)Nc1ccccn1`: the TGI in experiment [1], in experiment [2], in experiment [3], in experiment [4], in experiment [6] and in [7] was over 100 µM in each case. The TGI in experiment [8], in experiment [9] and in experiment [10] was over 100 µM in each case.

For the compound `O=C1CSC(N2CCN(c3cccc(Cl)c3)CC2)=N1`, the GI50 in experiment [1], in experiment [2], in experiment [3], in experiment [4], in experiment [5] and in experiment [6] was over 100 µM in each case. The GI50 in [7] was over 100 µM; in [8], over 100 µM; in experiment [9] it was over 100 µM; in experiment [10], 46 µM. Moreover, the TGI in [1], in experiment [2], in [3], in [4], in experiment [5] and in experiment [6] was over 100 µM throughout. Besides, the TGI in experiment [7], in experiment [8], in [9] and in [10] was over 100 µM each time.

Take `COc1cc2c(c(O)c1C)C(=O)C(Cl)=CC2=O`: the TGI in experiment [1] is 5.24 µM; in experiment [2], 27.6 µM; in experiment [3], over 65.6 µM; in [4] it was over 69.2 µM; in experiment [5] it was 8.66 µM; in experiment [6], 8.29 µM. The TGI in experiment [7] was determined as 23.3 µM; in [8], 5.57 µM; in experiment [9], 21.7 µM; in [10], 21.9 µM.

Consider `C#CC(C)(C)Oc1cc(O)c2c(=O)c3ccccc3n(C)c2c1`, for which the TGI in [1], in [2], in experiment [3], in experiment [4], in experiment [5] and in experiment [7] was over 100 µM in each case. For the same compound, the TGI in experiment [8], in experiment [9] and in experiment [10] was over 100 µM throughout.

For the compound `O=[N+]([O-])c1ccc(NSc2ccccc2)cc1`, the TGI in experiment [1] was 39.4 µM; in experiment [2], 35.5 µM; in [3] it was 87.3 µM; in [4], over 100 µM; in [5], 49.4 µM; in [6] it was over 100 µM. Besides, the values for the TGI in [7], in experiment [8] and in [9] were 90.1 µM, 47.5 µM and over 100 µM, respectively.

With `C[Si](C)(C)c1ccc(CC2(Cc3ccc([Si](C)(C)C)cc3)CCNC2)cc1`, the TGI was 3.28 µM in experiment [1]; 3.11 µM in experiment [2]; 3.8 µM in experiment [3]; 6 µM in experiment [4]; 3.38 µM in [6]; 18.9 µM in experiment [7]. In addition, the results for the TGI in [8], in [9] and in [10] were over 100 µM, 3.35 µM and 4.08 µM, respectively.

For the compound `CCOC(=O)CCCO`, the TGI in [1], in experiment [2], in [3], in [5], in [6] and in experiment [7] was over 100 µM each time. Moreover, the TGI in experiment [8], in experiment [9] and in [10] was over 100 µM in each case.

`COc1nc2c(cc1S(=O)(=O)c1ccccc1)CCc1c-2cnn1-c1ccccc1Cl`: the GI50 in experiment [1] is 3.02 µM; in experiment [2], 19.6 µM; in [3] it was over 100 µM; in experiment [4] it was over 100 µM; in experiment [5], 4.76 µM; in experiment [6], over 100 µM. Further, the GI50 in [8] is 4.98 µM; in experiment [9], 3.31 µM; in experiment [10], 4.73 µM. Besides, the TGI in [1], in experiment [2], in experiment [3], in experiment [4], in experiment [5] and in [6] was over 100 µM each time. The TGI in [8], in [9] and in experiment [10] was over 100 µM in each case.

`CCOc1ccc2nc(NC(=O)/C(CC(=O)CC(C3=C(O)c4ccccc4CC3=O)c3ccccc3)=N\O)sc2c1` (stereo not given): the TGI in experiment [1], in experiment [2], in experiment [3], in experiment [5], in experiment [6] and in experiment [7] was over 100 µM each time. Further, the TGI in [8], in experiment [9] and in [10] was over 100 µM in each case.

Regarding `COc1ccc(CN2CCCC(C(=O)c3ccc(C(F)(F)F)cc3)C2)c(O)c1` (stereo not given), the GI50 in [1] was 19.3 µM; in experiment [2], 24.4 µM; in experiment [3], 36.1 µM; in experiment [4], 29.1 µM; in experiment [5], 27.5 µM; in [6], 18.6 µM. Also, the GI50 in experiment [8] is 24.9 µM; in experiment [9] it was 15.9 µM; in [10] it was 14.4 µM. In addition, the TGI was 42.2 µM in experiment [1]; 89.3 µM in [2]; over 100 µM in experiment [3]; over 100 µM in experiment [4]; over 100 µM in [5]; 41.2 µM in experiment [6]. Besides, the TGI was 62 µM in experiment [8], 29.8 µM in experiment [9] and 33.9 µM in experiment [10].

`CN=C1NC(=O)/C(=C/c2ccc3ncccc3c2)S1`: the GI50 was 3.28 µM in experiment [1]; 7.7 µM in experiment [2]; 7.76 µM in [3]; 10.3 µM in experiment [4]; 11.2 µM in experiment [5]; 8.41 µM in [6]. The GI50 in experiment [8] was 8.73 µM; in experiment [9] it was 7.44 µM; in [10], 9.14 µM. In addition, the TGI in experiment [1] is over 25 µM; in experiment [2], over 25 µM; in [3], 24.8 µM; in experiment [4], over 25 µM; in experiment [5] it was over 25 µM; in experiment [6], over 25 µM. Also, the TGI was over 25 µM in experiment [8], over 20.1 µM in experiment [9] and over 25 µM in [10].

For the compound `COC(=O)[C@@H](C)C[C@H](Cc1ccccc1)NC(=O)c1nc([C@@H](C[C@H](C(C)C)N(C)C(=O)[C@@H](NC(=O)[C@H]2CCCN2C)C(C)C)OC(C)=O)sc1C`, the GI50 is under 0.0025 µM in experiment [1]; under 0.0025 µM in experiment [2]; under 0.0025 µM in experiment [3]; 0.00618 µM in experiment [4]; 0.00278 µM in experiment [5]; under 0.0025 µM in experiment [6]. The GI50 was 0.0106 µM in [7], under 0.0025 µM in [8] and under 0.0025 µM in [9]. Besides, the TGI in experiment [1] is under 0.0025 µM; in experiment [2], over 25 µM; in [3], over 25 µM; in experiment [4] it was over 25 µM; in experiment [5], over 25 µM; in experiment [6], over 25 µM. In addition, the TGI in experiment [7] is over 25 µM; in experiment [8] it was under 0.0025 µM; in experiment [9], 0.0698 µM.

Take `Cc1c(C(=O)/C=C/c2cccc3ccccc23)[n+](=O)c2ccccc2n1[O-]`: the TGI in experiment [1] amounted to 19.8 µM; in experiment [2] it was 29.8 µM; in [3] it was 32.6 µM; in experiment [4], 29.6 µM; in [5], 35.4 µM; in experiment [6], 22.7 µM. The figures for the TGI in experiment [7], in [8] and in experiment [10] were 27.3 µM, 27.3 µM and 24.8 µM, respectively.

As for `CN(C)c1ccc2c(c1)oc(=O)c1ccccc12`, the TGI in experiment [1] turned out to be 20.9 µM; in experiment [2] it was 25.8 µM; in experiment [4], 65.6 µM; in [5] it was 73.3 µM; in [6], 23.4 µM; in experiment [7], 52.3 µM. In addition, the results for the TGI in experiment [8], in [9] and in [10] were 20.3 µM, 22.8 µM and 26.1 µM, respectively.

On to `NS(=O)(=O)c1ccc(-n2nc(-c3ccc(Br)cc3)ccc2=O)cc1`, for which the GI50 in experiment [1] is 2.09 µM; in [2] it was over 10 µM; in [3], over 10 µM; in [4], over 10 µM; in experiment [5] it was over 10 µM; in [6] it was over 10 µM. The GI50 in experiment [8], in [9] and in experiment [10] was over 10 µM each time. The TGI in [1], in experiment [2], in [3], in [4], in [5] and in experiment [6] was over 10 µM throughout. In addition, the TGI in experiment [8], in [9] and in [10] was over 10 µM throughout.

For the compound `Cc1c(N2C(=O)/C(=C\c3ccccc3O)N=C2c2ccccc2)c(=O)n(-c2ccccc2)n1C`, the GI50 in experiment [1] was 64 µM; in experiment [2] it was over 100 µM; in experiment [3], 57.3 µM; in [4] it was 19.4 µM; in [6], over 100 µM; in [7], 77 µM. Besides, the figures for the GI50 in [8], in [9] and in [10] were over 100 µM, 62.3 µM and over 100 µM, respectively. Further, the TGI in experiment [1] is over 100 µM; in experiment [2], over 100 µM; in [3] it was over 100 µM; in experiment [4], 46.1 µM; in [6] it was over 100 µM; in experiment [7], over 100 µM. The TGI in experiment [8], in [9] and in experiment [10] was over 100 µM each time.
